Measured values: patent publication US20200239530A1, “COMPOUNDS AND METHODS OF MODULATING PROTEIN DEGRADATION” (Vividion Therapeutics, Inc., priority 2017, published 2020)
Values belong to the compound of their own block, whether it stands above or below them.

Assays:
Experiment in all cases: Competitive cysteine profiling of cell lysate with desthiobiotin iodoacetamide probe (96-well sample prep)
Format in all cases: binding
[1] = biological target: T1, cysteine residue illustrated in Table 1A or Table 2A (Homo sapiens, UniProt Q9P000); conditions: UniProt Q9P000; 100 uM
T1 construct: Cells were resuspended in cold PBS on ice and sonicated with a probe sonicator to achieve lysis; endogenous in cells
Method: (§1) In some embodiments, the solution sample (e.g., cell sample, cell lysate sample, or comprising isolated proteins) is incubated with a compound of Formula (I) for analysis of protein-probe interactions. In some instances, the solution sample (e.g., cell sample, cell lysate sample, or comprising isolated proteins) is further incubated in the presence of an additional compound probe prior to addition of the compound of Formula (I). […] In such instances, the solution sample is incubated with a probe and a ligand for competitive protein profiling analysis.
(§2) The following 96-well sample prep protocol was used for sample preparation.
(§3) Cells were resuspended in cold PBS on ice and sonicated with a probe sonicator to achieve lysis. 200 μL of lysate containing 5 mg/ml proteome was treated with 2 μL of 100× compound stock in a 2-mL deep-well plate. The treated lysate was subsequently incubate at 25° C. for 1 hr with shaking at 600 rpm. The treated lysate was further incubated with 2 μL of 10 mM desthiobiotin iodoacetamide probe at 25° C. for 1 hr with shaking at 600 rpm. Next, the lysate was further treat with 20 μL of solution of PBS containing 11 mM MgSO4 and 2.5% Turbonuclease stock and incubated at 25° C. for 20 minutes with shaking at 600 rpm. 1.7 mL ice-cold acetone was added to each well and incubated at −20° C. for 2 hr, followed by max speed (4200 rpm) spin for 45 min. Acetone was then decanted and the plates were blotted to remove acetone. The plates were then dried in open air for 20 minutes. After drying, the plates were then covered with foil seal and stored at −80° C. overnight.
(§4) The next day, samples were re-suspended in 90 μL of solution of 9M urea, 50 mM ammonium bicarbonate and 10 mM DTT by incubating at 65C for 20 min with shaking at 1500 rpm. Next, samples were cooled to 37° C. and then 10 μL of 500 mM iodoacetamide solution (92.48 mg/ml) was added. The samples were then incubated at 37° C. for 30 min with shaking at 600 rpm.
(§5) ZEBA desalting plates were equilibrated 4 times using 250 μL of 2M urea, 50 mM ammonium bicarbonate solution followed by centrifugation at 1500 rpm for 2 minutes. After equilibration was complete, samples were applied to ZEBA desalting plate and spin at 1500 rpm for 2 min on top of 1 mL 96-well deep-well collection plate to buffer exchange samples. 4 μL of solution containing 25 mM CaCl2 and 0.25 mg/mL trypsin was added to the plate and the plate was then incubated at 37° C. for 2 hrs with shaking at 600 rpm. 300 μL of solution containing 5% high-capacity streptavidin agarose slurry in 25 mM Tris-HCl pH 7.5, 150 mM NaCl, and 0.1% NP-40 then added. The plate was incubated at 25° C. for 2 hrs with shaking at 600 rpm. Samples were transferred to 25 μm filter plate and spin at 1000 rpm for 2 min. Samples were then washed 3 times with 0.75 mL of wash buffer (25 mM Tris-HCl pH 7.5, 150 mM NaCl, and 0.1% NP-40) followed by washing 3 times with 0.75 mL PBS, and then 4 times with 0.75 mL water. After the washing step, samples were eluted into polypropylene 96-well plate by addition of 250 µL of 50% MeCN/water, 0.1% formic acid and allowed to gravity drip for 10 min, followed by centrifugation at 1000 rpm for 2 min. Speedvac was used to dry the plates at about 45° C. for […]. Then the plates were covered with foil seal and stored at −20° C.
(§6) Samples were resuspended by addition of 20 μl of 12.5% ACN, 0.1% formic acid solution, covered with foil seal, and incubated at 42° C. for 10 minutes with shaking at 600 rpm. Then add 30 μL of 0.1% formic acid solution was added and the plate was covered and incubated at 42° C. for 10 minutes with shaking at 600 rpm. Seal plate was then sealed with a 96-well silicon mat for analysis.

[2] = biological target: T2, cysteine residue illustrated in Table 1A or Table 2A (Homo sapiens, UniProt Q8WV16); conditions: UniProt Q8WV16; 100 uM
T2 construct: Cells were resuspended in cold PBS on ice and sonicated with a probe sonicator to achieve lysis; endogenous in cells
Method: as §1, §2, §3, §4, §5, §6

[3] = biological target: T3, cysteine residue illustrated in Table 1A or Table 2A (Homo sapiens, UniProt Q8NHY2); conditions: UniProt Q8NHY2; 100 uM
T3 construct: Cells were resuspended in cold PBS on ice and sonicated with a probe sonicator to achieve lysis; endogenous in cells
Method: as §1, §2, §3, §4, §5, §6

[4] = biological target: T4, cysteine residue illustrated in Table 1A or Table 2A (Homo sapiens, UniProt Q8N3P4); conditions: UniProt Q8N3P4
T4 construct: Cells were resuspended in cold PBS on ice and sonicated with a probe sonicator to achieve lysis; endogenous in cells
Method: as §1, §2, §3, §4, §5, §6

[5] = biological target: T5, cysteine residue illustrated in Table 1A or Table 2A (Homo sapiens, UniProt Q8TEB1); conditions: UniProt Q8TEB1; 100 uM
T5 construct: Cells were resuspended in cold PBS on ice and sonicated with a probe sonicator to achieve lysis; endogenous in cells
Method: as §1, §2, §3, §4, §5, §6

[6] = biological target: T6, cysteine residue illustrated in Table 1A or Table 2A (Homo sapiens, UniProt Q5T6F0); conditions: UniProt Q5T6F0; 100 uM
T6 construct: Cells were resuspended in cold PBS on ice and sonicated with a probe sonicator to achieve lysis; endogenous in cells
Method: as §1, §2, §3, §4, §5, §6

[7] = biological target: T7, cysteine residue illustrated in Table 1A or Table 2A (Homo sapiens, UniProt Q66K64); conditions: UniProt Q66K64; 100 uM
T7 construct: Cells were resuspended in cold PBS on ice and sonicated with a probe sonicator to achieve lysis; endogenous in cells
Method: as §1, §2, §3, §4, §5, §6

[8] = biological target: T8, cysteine residue illustrated in Table 1A or Table 2A (Homo sapiens, UniProt O94941); conditions: UniProt O94941
T8 construct: Cells were resuspended in cold PBS on ice and sonicated with a probe sonicator to achieve lysis; endogenous in cells
Method: as §1, §2, §3, §4, §5, §6

[9] = biological target: T9, cysteine residue illustrated in Table 1A or Table 2A (Homo sapiens, UniProt O60826); conditions: UniProt O60826; 100 uM
T9 construct: Cells were resuspended in cold PBS on ice and sonicated with a probe sonicator to achieve lysis; endogenous in cells
Method: as §1, §2, §3, §4, §5, §6

[10] = biological target: T10, cysteine residue illustrated in Table 1A or Table 2A (Homo sapiens, UniProt Q96GG9); conditions: UniProt Q96GG9; 100 uM
T10 construct: Cells were resuspended in cold PBS on ice and sonicated with a probe sonicator to achieve lysis; endogenous in cells
Method: as §1, §2, §3, §4, §5, §6

[11] = biological target: T11, cysteine residue illustrated in Table 1A or Table 2A (Homo sapiens, UniProt Q6P1J9); conditions: UniProt Q6P1J9; 100 uM
T11 construct: Cells were resuspended in cold PBS on ice and sonicated with a probe sonicator to achieve lysis; endogenous in cells
Method: as §1, §2, §3, §4, §5, §6

[12] = system: cysteine residue illustrated in Table 1A or Table 2A; conditions: for KB02_100 uM_percent_inhibition: KB02 at 100 uM; for KB03_100 uM_percent_inhibition: KB03 at 100 uM
Method: as §1, §2, §3, §4, §5, §6

[13] = biological target: T12, cysteine residue illustrated in Table 1A or Table 2A (Homo sapiens, UniProt Q86UW9); conditions: UniProt Q86UW9; 100 uM
T12 construct: Cells were resuspended in cold PBS on ice and sonicated with a probe sonicator to achieve lysis; endogenous in cells
Method: as §1, §2, §3, §4, §5, §6

[14] = biological target: T13, cysteine residue illustrated in Table 1A or Table 2A (Homo sapiens, UniProt O75155); conditions: UniProt O75155; 100 uM
T13 construct: Cells were resuspended in cold PBS on ice and sonicated with a probe sonicator to achieve lysis; endogenous in cells
Method: as §1, §2, §3, §4, §5, §6

KB05_100 uM_percent_inhibition [1]: 19%
KB05_100 uM_percent_inhibition [2]: 26%
KB05_100 uM_percent_inhibition [3]: 43%
KB05_100 uM_percent_inhibition ([4]; KB05 100 uM): 55%
KB05_100 uM_percent_inhibition [5]: 38%
KB05_100 uM_percent_inhibition [6]: 31%
KB05_100 uM_percent_inhibition [7]: 11%
KB05_100 uM_percent_inhibition ([8]; KB05 100 uM): 40%
KB05_100 uM_percent_inhibition [9]: 22%
KB05_100 uM_percent_inhibition [10]: 10%
KB05_100 uM_percent_inhibition [11]: 33%
Structure (SMILES): C=CC(=O)N(c1ccccc1)c1ccc(Br)cc1 [KB05]

Structure (SMILES): COc1ccc2c(c1)CCCN2C(=O)CCl [KB02]
KB02_100 uM_percent_inhibition ([12]; c0 = UniProt of target protein, one grid row per cysteine site): 24%
KB02_100 uM_percent_inhibition ([12]; target protein = UniProt accession, one row per cysteine site): 24%
KB02_100 uM_percent_inhibition ([12]; target protein = UniProt id in c0 of the row (one row per cysteine site)): 24%
KB02_100 uM_percent_inhibition [13]: 28%
KB02_100 uM_percent_inhibition [2]: 16%
KB02_100 uM_percent_inhibition [14]: 24%

Structure (SMILES): O=C(CCl)Nc1cc(C(F)(F)F)cc(C(F)(F)F)c1 [KBO3]
KB03_100 uM_percent_inhibition ([12]; target protein = UniProt accession, one row per cysteine site, UniProt Q9P0J7): 90%
KB03_100 uM_percent_inhibition ([12]; target protein = UniProt accession, one row per cysteine site, UniProt Q08380): 69%
KB03_100 uM_percent_inhibition [13]: 8%
KB03_100 uM_percent_inhibition [1]: 30%
KB03_100 uM_percent_inhibition [3]: 27%
KB03_100 uM_percent_inhibition ([4]; KB03 100 uM): 44%
KB03_100 uM_percent_inhibition [5]: 43%
KB03_100 uM_percent_inhibition [6]: 11%
KB03_100 uM_percent_inhibition [7]: 31%
KB03_100 uM_percent_inhibition [14]: 31%
KB03_100 uM_percent_inhibition ([8]; KB03 100 uM): 63%
KB03_100 uM_percent_inhibition [9]: 7%
KB03_100 uM_percent_inhibition [10]: 26%
KB03_100 uM_percent_inhibition [11]: 24%
